Data taken from a melting point compilation (Tetko et al.; mined from patent text by program, amines drawn as free bases though some values may be those of a salt).

Row | melting point | Compound
1 | 251 to 252 °C | CC1(C)Oc2ccc(C#N)cc2C(n2nc(O)ccc2=O)C1O (stereo unspecified)
2 | 188 to 189 °C | CCC(=O)Nc1snc(N(CC)CC)c1C#N
3 | > 300 °C | CC(=O)Nc1cccc2c1C(=O)c1c-2n[nH]c1-c1ccccc1
4 | 44 °C | CCCC(CCC)CCCC(N)=O
5 | 150 to 153 °C | CC(C)c1ccc(-c2cnc(-c3cccc(C(=O)O)c3)o2)cc1
6 | 153 to 154 °C | O=S(=O)(c1ccc(I)cc1)N1CCCC(c2ccc(Cl)c(C(F)(F)F)c2)=N1
7 | 52 to 54 °C | CCCC(C)n1sc2ccccc2c1=O (stereo unspecified)
8 | 155 to 156 °C | Cc1ccc(C(=O)Cc2nnnn2C)c(N)c1
9 | 153 to 154 °C | CCC1(C)OC(c2ccc(S(N)(=O)=O)cc2)=C(c2ccccc2)C1=O (stereo unspecified)
10 | 209 to 216 °C | CN=C(O)c1c(Cl)c(Cl)c(Sc2ccc(C)cc2)c(Cl)c1C(=O)O
11 | 110 to 120 °C | COc1cc2c(cc1OC)N(C(=O)c1ccc(-c3ccccc3OC)c(C)c1)Cc1ccc(C(=O)N(C)CC(O)C(O)C(O)C(O)CO)n1C2 (stereo unspecified)
12 | 254 °C | CC(=O)NC1CCc2cc3c(cc2C1)OCC3O (stereo unspecified)
13 | 194 to 196 °C | CC(C)(C)C1(O)CCN(CC23CC(c4ccc(Cl)cc42)c2ccc(Cl)cc23)CC1
14 | 141 °C | O=[N+]([O-])c1sc(Nc2c(Cl)cccc2Cl)nc1Cl
15 | 134 to 135 °C | CCN1C=C(C(=O)OC)C(=O)CC1c1ccc(OC)c(OC)c1 (stereo unspecified)
16 | 247 to 248 °C | O=c1nc(-c2ccc(CO)cn2)sc2ccccc12
17 | 123 to 127 °C | O=[N+]([O-])c1cnc(Oc2cnc3ccccc3c2)c(Cl)c1
18 | 140 to 142 °C | CCCc1nc2c(N)nc3ccccc3c2n1CCCC(C)N(OC)C(=O)Nc1ccccc1 (stereo unspecified)
19 | 290 to 291 °C | N=C(N)Nc1nc(-c2cccc([N+](=O)[O-])c2)no1
20 | 130 °C | Fc1ccc(OCCCN2CCC(CNc3nc4ccccc4s3)CC2)c(OCc2ccccc2)c1
21 | 187 to 189 °C | CCOC(=O)c1ccc(OC(=O)c2ccc(C(=O)Oc3ccc(C(=O)OCC)cc3)cc2)cc1
22 | 84 to 85 °C | Cc1sc(-c2ccccc2)nc1COc1cc(CO)on1
23 | 169 to 171 °C | Nc1ncnc2c1c(-c1ccc(Oc3ccccc3CN3CCOCC3)cc1)cn2C1CCOC1 (stereo unspecified)

Row | melting point | Compound
24 | 205 to 210 °C | C1=C(/C=C/c2ccccc2)CCN(Cc2n[nH]c3c2CCc2ccccc2-3)C1
25 | 61 to 63 °C | CC(C)c1ccc(-c2ccc(Sc3ccccc3)s2)cc1
26 | 221 to 223 °C | COc1cc(-c2ccc(O)c(C3(C)CCCCC3)c2)cc(CC2SC(N3CCOCC3)=NC2=O)c1O (stereo unspecified)
27 | 249 °C | Nc1ncc(-c2ccc(=O)[nH]n2)c(-c2cccc(F)c2)n1
28 | 173 to 174 °C | COc1cc(OC)cc(-c2cc(=O)c3ccc(OCCCBr)cc3o2)c1
29 | 261 to 264 °C | O=C(O)CN1C(=O)C(=Cc2cccnc2)SC1=S
30 | 208 to 216 °C | Oc1ccccc1N1CCN(Cc2nc3ccccc3[nH]2)CC1
31 | 152 to 155 °C | COC1CCC(C2=C(O)C(=O)c3ccccc3C2=O)CC1 (stereo unspecified)
32 | 175 to 177 °C | Nc1cc(C(=O)O)ccc1C(F)(F)F
33 | 155 to 157 °C | CC(C)(C)c1ccc(N2CC(COC(=O)c3ccccc3C(=O)O)CC2=O)cc1 (stereo unspecified)
34 | 150 °C | OCCN1CCC(=C2c3sccc3CCn3ncnc32)CC1
35 | 193 °C | CN(c1ccccc1)c1ncnc2c(I)cnn12
36 | 72 °C | N#Cc1ccc(C(=C2CCCC2)c2nc[nH]n2)cc1
37 | 112 to 113 °C | Nc1cccc(C(=O)c2ccc(Oc3ccccc3)c(N)c2)c1
38 | 202 to 204 °C | Cc1cc([N+](=O)[O-])ccc1NC(=O)c1cc(C(C)(C)C)ccc1O
39 | 116 to 117 °C | COC(=O)c1cccc(S(=O)(=O)C2CCN(CCc3ccc(F)cc3F)CC2)c1
40 | 92 to 93 °C | CCOC(=O)CSc1nnc(-c2ccc3c(c2)CCO3)o1
41 | 110 to 115 °C | CC(C)[C@H](NC(=O)Cc1cc(F)cc(F)c1)C(=O)N[C@@H]1C(=O)Nc2ccccc2S[C@@H]1c1ccccc1
42 | 107 to 109 °C | COc1ncnc(OC)c1C(C(C)C)N(C)C(=O)Cc1ccc(Cl)cc1 (stereo unspecified)
43 | 181 to 184 °C | CC(C)(C)c1nc(C(=O)c2nccs2)nc(C(C)(C)C)c1O
44 | 180 to 182 °C | CCOC(=O)c1c(C)nc2[nH]ncc2c1OCC
45 | 248 to 250 °C | COc1ccc2c(c1)c(CC(=O)O)c(C)n2-c1ccnc2cc(Cl)ccc12
46 | 131 to 133 °C | O=C(Cc1ccc([N+](=O)[O-])cc1)c1ccc([N+](=O)[O-])cc1

Row | melting point | Compound
47 | 156 °C | COC(=O)Cc1cccc(NC(=O)NCC(=O)N2[C@@H](C(=O)N3CCCC3)C[C@H](S(=O)(=O)c3ccccc3)[C@H]2c2ccccc2F)c1 (racemic)
48 | 122 to 123 °C | COC(=O)c1ccccc1CSc1c(O)cc(-c2ccccc2)oc1=O
49 | 293 to 295 °C | Cc1ccc([N+](=O)[O-])c(C=C2NC(=O)NC2=O)c1C
50 | 187 to 188 °C | CC(C)(C)OC(=O)NNC(=O)c1ccnc2[nH]c(CCc3ccccc3)cc12
51 | 183 to 184 °C | COC(=O)C1CCc2cc(C(=O)c3cccs3)c(O)cc21 (stereo unspecified)
52 | 76 °C | CCSc1c(C=NOCc2ccccc2)c(=O)n(C)c(=O)n1C
53 | 292 to 295 °C | CNC(=O)c1cn(-c2cc3c(=O)n(NS(C)(=O)=O)c(=O)[nH]c3cc2C(F)(F)F)cn1
54 | 252 °C | Clc1cccc(CNc2ncnc3nc[nH]c23)c1
55 | 166 to 167 °C | CC1(C)CCSc2ccc(C(O)COc3ccc(C(=O)O)c(O)c3)cc21 (stereo unspecified)
56 | 183 to 184 °C | CC(C)C[C@H](NC(=O)[C@H](CS)C(F)(F)F)c1nnn[nH]1
57 | 170 to 175 °C | CCCCCCCCNC1=NS(=O)(=O)c2cc(Cl)cnc2N1
58 | 168 to 169 °C | O=C(O)CCc1cc2ccc(C(F)(F)F)cc2n1S(=O)(=O)c1ccccc1
59 | 170 to 174 °C | C=Cc1c(-c2ccccc2)coc1C(=O)NNC(=O)c1ccc(O)c(C#N)c1
60 | 90 to 92 °C | CCOC(=O)c1c([N+](=O)[O-])c(-c2ccc(Cl)cc2)n(OC)c1C(F)(F)F
61 | 235 to 237 °C | Cc1ccc2cc(C(=O)O)oc2c1C
62 | 138 to 140 °C | CCOc1nc2cc(OC)cc(C)c2c(=O)o1
63 | 180 to 181 °C | CC(=O)OCC1OC(C2=NNC(N)(c3ccc(Cl)c(Cl)c3)O2)C(OC(C)=O)C(OC(C)=O)C1OC(C)=O (stereo unspecified)
64 | 126 to 128 °C | COc1cc(C(=O)N(C(C)C)C2CCCCC2)ccc1Oc1cc(OC)c(OC)c(OC)c1
65 | 160 to 161 °C | CCCCCS(=O)(=O)c1cccc(-c2nc(=O)c3ccccc3s2)n1
66 | 271 to 273 °C | O=C(O)c1cn([C@@H]2C[C@@H]2F)c2c(F)c(N3C[C@@H]4CCCN[C@@H]4C3)c(F)cc2c1=O
67 | 234 to 236 °C | CNS(=O)(=O)c1ccc(-c2cc(N3CCOCC3)cc(Nc3ccc(OC(F)(F)F)cc3)n2)cc1
68 | 139 to 141 °C | CS(=O)CCC(=O)Nc1ccc(OCC(O)CO)cc1 (stereo unspecified)
69 | 213 to 214 °C | COc1ccc(Oc2ccc3c(c2)SC(c2ccc(OC)cc2)C(O)C(=O)N3)cc1 (stereo unspecified)

Row | Compound | melting point
70 | CN1CCC(c2ccccc2)(N2CCCC2)C(O)C1 (stereo unspecified) | 149 to 151 °C
71 | COc1cccc(NC(=O)OC2CN3CCC2CC3)c1 (stereo unspecified) | 130 to 132 °C
